From ChEMBL document CHEMBL3864133, “Discovery of a Potent and Selective in Vivo Probe (GNE-272) for the Bromodomains of CBP/EP300” (J Med Chem, 2016)

How the values were obtained:
[1] = biological target: T1, CREB-binding protein/Histone acetyltransferase p300 (Homo sapiens, UniProt Q09472+Q92793); assay: Displacement of biotinylated ligand from recombinant His-tagged CBP/EP300 (unknown origin) measured after 10 mins by TR-FRET assay; type: protein assay
[2] = biological target: T2, Bromodomain-containing protein 4 (Homo sapiens, UniProt O60885); assay: Displacement of biotinylated ligand from recombinant His-tagged BRD4 bromodomain-1 (unknown origin) measured after 10 mins by TR-FRET assay
[3] = Apparent permeability of the compound across apical side to basolateral side in MDCK cells at 10 uM measured after 180 mins by LC-MS/MS analysis; type: ADME, cell-based, Canis lupus familiaris; conditions: dog
[4] = biological target: T2, Bromodomain-containing protein 4; assay: Displacement of biotinylated ligand from BRD4 bromodomain-1 (unknown origin) by TR-FRET assay
CREB-binding protein [5] = biological target: T3, CREB-binding protein (Homo sapiens, UniProt Q92793); assay: Displacement of biotinylated ligand from CBP (unknown origin) by TR-FRET assay
T3 sequence (Q92793 whole entry): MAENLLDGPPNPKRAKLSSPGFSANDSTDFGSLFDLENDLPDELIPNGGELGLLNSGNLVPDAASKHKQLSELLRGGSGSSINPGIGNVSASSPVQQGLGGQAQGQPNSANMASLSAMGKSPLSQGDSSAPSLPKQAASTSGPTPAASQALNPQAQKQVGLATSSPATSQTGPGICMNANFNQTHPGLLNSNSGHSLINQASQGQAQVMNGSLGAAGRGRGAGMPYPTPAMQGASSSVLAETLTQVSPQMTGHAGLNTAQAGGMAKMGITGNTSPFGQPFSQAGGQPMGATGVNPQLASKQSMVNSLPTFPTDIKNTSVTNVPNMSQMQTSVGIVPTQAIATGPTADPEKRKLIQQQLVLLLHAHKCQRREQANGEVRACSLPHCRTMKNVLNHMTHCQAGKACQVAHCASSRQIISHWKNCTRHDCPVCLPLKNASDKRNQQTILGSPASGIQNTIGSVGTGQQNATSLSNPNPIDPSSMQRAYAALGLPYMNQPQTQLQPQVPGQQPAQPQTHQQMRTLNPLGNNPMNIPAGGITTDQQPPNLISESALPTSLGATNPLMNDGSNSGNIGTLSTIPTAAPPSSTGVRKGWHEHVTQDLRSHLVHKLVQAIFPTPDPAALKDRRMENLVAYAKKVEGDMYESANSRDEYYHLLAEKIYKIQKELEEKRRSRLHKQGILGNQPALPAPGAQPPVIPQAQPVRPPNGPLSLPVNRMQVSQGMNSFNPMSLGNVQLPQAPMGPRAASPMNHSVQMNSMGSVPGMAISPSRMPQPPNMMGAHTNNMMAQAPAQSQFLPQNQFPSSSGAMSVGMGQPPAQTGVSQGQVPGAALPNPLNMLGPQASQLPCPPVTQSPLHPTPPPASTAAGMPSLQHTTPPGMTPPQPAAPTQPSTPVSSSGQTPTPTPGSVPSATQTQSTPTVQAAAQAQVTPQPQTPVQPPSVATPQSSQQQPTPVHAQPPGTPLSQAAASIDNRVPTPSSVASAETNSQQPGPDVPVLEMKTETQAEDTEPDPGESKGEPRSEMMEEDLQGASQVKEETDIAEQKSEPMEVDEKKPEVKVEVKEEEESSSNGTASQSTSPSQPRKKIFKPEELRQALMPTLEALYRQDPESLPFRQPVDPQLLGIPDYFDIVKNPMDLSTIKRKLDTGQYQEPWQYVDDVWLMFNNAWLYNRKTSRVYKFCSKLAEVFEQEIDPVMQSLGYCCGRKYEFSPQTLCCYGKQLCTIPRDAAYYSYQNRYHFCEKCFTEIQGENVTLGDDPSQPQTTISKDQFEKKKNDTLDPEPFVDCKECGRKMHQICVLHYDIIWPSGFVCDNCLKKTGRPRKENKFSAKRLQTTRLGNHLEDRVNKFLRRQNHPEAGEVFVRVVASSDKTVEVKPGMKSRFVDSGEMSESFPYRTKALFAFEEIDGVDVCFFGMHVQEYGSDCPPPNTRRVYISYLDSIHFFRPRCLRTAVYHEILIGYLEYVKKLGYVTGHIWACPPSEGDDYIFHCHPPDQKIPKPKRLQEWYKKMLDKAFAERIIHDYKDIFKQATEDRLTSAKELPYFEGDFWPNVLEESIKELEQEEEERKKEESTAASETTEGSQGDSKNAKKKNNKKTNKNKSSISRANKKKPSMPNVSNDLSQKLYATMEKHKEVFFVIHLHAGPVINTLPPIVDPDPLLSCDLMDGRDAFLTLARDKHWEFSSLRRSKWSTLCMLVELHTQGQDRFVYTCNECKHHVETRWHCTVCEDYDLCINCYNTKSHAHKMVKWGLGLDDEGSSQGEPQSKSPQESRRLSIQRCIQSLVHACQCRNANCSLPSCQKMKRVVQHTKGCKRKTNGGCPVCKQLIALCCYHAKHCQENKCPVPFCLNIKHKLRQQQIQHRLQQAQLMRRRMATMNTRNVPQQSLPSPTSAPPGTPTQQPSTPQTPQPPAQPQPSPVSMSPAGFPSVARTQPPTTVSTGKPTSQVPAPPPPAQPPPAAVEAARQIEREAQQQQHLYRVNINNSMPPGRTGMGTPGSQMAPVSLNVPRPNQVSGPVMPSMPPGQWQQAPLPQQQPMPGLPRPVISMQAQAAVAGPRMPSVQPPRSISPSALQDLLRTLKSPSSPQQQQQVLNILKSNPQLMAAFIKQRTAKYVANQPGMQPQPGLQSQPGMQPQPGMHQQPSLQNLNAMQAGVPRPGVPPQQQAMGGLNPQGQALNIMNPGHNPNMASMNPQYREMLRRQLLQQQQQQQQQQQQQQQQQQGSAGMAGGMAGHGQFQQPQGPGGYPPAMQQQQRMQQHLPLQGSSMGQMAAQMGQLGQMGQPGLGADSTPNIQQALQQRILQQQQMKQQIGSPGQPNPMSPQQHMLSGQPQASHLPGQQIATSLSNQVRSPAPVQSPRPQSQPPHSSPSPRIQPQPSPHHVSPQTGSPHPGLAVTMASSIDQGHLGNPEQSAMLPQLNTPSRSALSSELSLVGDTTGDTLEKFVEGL

CREB-binding protein [6] = biological target: T3, CREB-binding protein; assay: Inhibition of Halo-tagged histone H3.3 binding to NanoLuc luciferase conjugated CBP (unknown origin) expressed in HEK293 cells after overnight incubation by BRET assay; type: cell-based
[7] = biological target: T1, CREB-binding protein/Histone acetyltransferase p300; assay: Inhibition of CBP/EP300 (unknown origin) assessed as reduction in MYC expression by cell based assay
[8] = Clearance in mouse; type: ADME, organism-based; conditions: in vivo
[9] = Drug metabolism in CD-1 mouse hepatocytes assessed as glucuronidation of compound at 1 uM up to 180 mins by LC-MS/MS analysis; type: ADME, cell-based, Hepatocyte; conditions: 3 h
[10] = biological target: T1, CREB-binding protein/Histone acetyltransferase p300; assay: Inhibition of Halo-tagged histone H3.3 binding to CBP/EP300 (unknown origin) expressed in HEK293 cells measured after overnight incubation by luciferase reporter gene based BRET assay; type: cell-based
[11] = Oral bioavailability in mouse; type: ADME, organism-based; conditions: in vivo
[12] = Drug metabolism in human liver microsomes assessed as phenyl ring oxidation at 10 uM up to 1 hr in presence of NADPH by LC-MS analysis; type: ADME
[13] = Drug metabolism in human liver microsomes assessed as cleavage of cyclopropylmethyl moiety at 10 uM up to 1 hr in presence of NADPH by LC-MS analysis; type: ADME
[14] = Drug metabolism in mouse liver microsomes assessed as phenyl ring oxidation at 10 uM up to 1 hr in presence of NADPH by LC-MS analysis; type: ADME
[15] = Drug metabolism in mouse liver microsomes assessed as cleavage of cyclopropylmethyl moiety at 10 uM up to 1 hr in presence of NADPH by LC-MS analysis; type: ADME

Structure (SMILES): Cc1cccc(Nc2n[nH]c3c2CN(S(C)(=O)=O)CC3)c1
- IC50 [1]: > 5 µM
- IC50 [2]: > 20 µM

Structure (SMILES): CC(=O)N1CCc2c(c(Nc3cccc(-c4cn[nH]c4)c3)nn2CC2CC2)C1
- IC50 [2]: 4.6 µM
- Papp A→B at 3 h, 10 µM [3]: 7.3 ×10⁻⁶ cm/s

Structure (SMILES): CCCn1nc(Nc2cccc(C)c2)c2c1CCN(C(C)=O)C2
- IC50 [1]: 0.07 µM
- IC50 [2]: 14 µM

Structure (SMILES): COc1ccc(CCc2nc3cc(-c4c(C)noc4C)ccc3n2C[C@H](C)N2CCOCC2)cc1Cl
- IC50 [4]: 3.2 µM

Structure (SMILES): CCC(=O)N1CCOc2c(cc(-c3ccc(OC)c(OC)c3)cc2OC[C@H]2CCCN(C)C2)C1
- IC50 (CREB-binding protein [5]): 0.44 µM
- IC50 (CREB-binding protein [6]): > 10 µM
- EC50 [7]: > 10 µM

Structure (SMILES): CCCOc1ccc(CCc2nc3cc(-c4c(C)noc4C)ccc3n2CCN2CCOCC2)cc1
- IC50 (CREB-binding protein [5]): 0.19 µM
- IC50 [4]: 2.9 µM
- IC50 (CREB-binding protein [6]): > 10 µM
- EC50 [7]: 6.6 µM

Structure (SMILES): COc1cccc(Nc2n[nH]c3c2CN(C(C)=O)CC3)c1
- IC50 [1]: 0.34 µM
- IC50 [2]: > 20 µM

Structure (SMILES): CC(=O)N1CCc2c(c(Nc3ccc(-c4cnn(C)c4)cc3)nn2CC2CC2)C1
- IC50 [2]: 6.4 µM
- clearance [8]: 118 mL/min/kg
- Drug metabolism [9]: Metabolite_Detected

Structure (SMILES): CCCC(=O)N1CCc2[nH]nc(Nc3cccc(C)c3)c2C1
- IC50 [1]: > 5 µM
- IC50 [2]: > 20 µM

Structure (SMILES): CC(=O)N1CCc2c(c(Nc3cccc(-c4ccccc4)c3)nn2CC2CC2)C1
- IC50 [2]: 4.6 µM
- IC50 [10]: 2.5 µM
- Papp A→B at 3 h, 10 µM [3]: 26 ×10⁻⁶ cm/s

Structure (SMILES): CC(=O)N1CCc2c(c(Nc3cccc(-c4ccncc4)c3)nn2CC2CC2)C1
- IC50 [2]: 0.87 µM
- Papp A→B at 3 h, 10 µM [3]: 20 ×10⁻⁶ cm/s

Structure (SMILES): CC(=O)N1CCc2c(c(Nc3cccc(C)c3)nn2CC2CC2)C1
- IC50 [2]: 13 µM

Structure (SMILES): COCCNC(=O)c1cccc(Nc2nn(CC3CC3)c3c2CN(C(C)=O)CC3)c1
- IC50 [2]: > 20 µM

Structure (SMILES): CC(=O)N1CCc2[nH]nc(Nc3cccc(C)c3)c2C1
- IC50 [1]: 0.34 µM
- IC50 [2]: > 20 µM

Structure (SMILES): CC(=O)N1CCc2[nH]nc(Nc3cccc(OC(F)F)c3)c2C1
- IC50 [1]: 0.16 µM
- IC50 [2]: > 20 µM

Structure (SMILES): CC(=O)N1CCc2c(c(Nc3cccc(-c4ccccn4)c3)nn2CC2CC2)C1
- IC50 [1]: 0.03 µM
- IC50 [10]: 0.56 µM
- Papp A→B at 3 h, 10 µM [3]: 15 ×10⁻⁶ cm/s

Structure (SMILES): COC(=O)c1cccc(Nc2n[nH]c3c2CN(C(C)=O)CC3)c1
- IC50 [1]: 0.11 µM
- IC50 [2]: 18 µM

Structure (SMILES): CC(=O)N1CCc2[nH]nc(Nc3ccc(C)cc3)c2C1
- IC50 [1]: 0.3 µM
- IC50 [2]: > 20 µM

Structure (SMILES): CCC(=O)N1CCc2[nH]nc(Nc3cccc(C)c3)c2C1
- IC50 [1]: 1.4 µM
- IC50 [2]: > 20 µM

Structure (SMILES): CCCNC(=O)c1cccc(Nc2nn(CC3CC3)c3c2CN(C(C)=O)CC3)c1
- IC50 [1]: 0.03 µM
- IC50 [2]: 5.8 µM
- IC50 [10]: 1.3 µM

Structure (SMILES): COC(=O)c1ccc(Nc2n[nH]c3c2CN(C(C)=O)CC3)cc1
- IC50 [1]: 0.14 µM
- IC50 [2]: > 20 µM

Structure (SMILES): CC(=O)N1CCc2c(c(Nc3ccc(-c4cnn(C)c4)cc3)nn2C2COC2)C1
- IC50 [1]: 0.04 µM
- IC50 [2]: 11 µM
- IC50 [10]: 1.2 µM

Structure (SMILES): CC(=O)N1CCc2[nH]nc(Nc3ccc(F)cc3)c2C1
- IC50 [1]: 0.91 µM
- IC50 [2]: > 20 µM

Structure (SMILES): CC(=O)N1CCc2c(c(Nc3cccc(-c4cnoc4)c3)nn2CC2CC2)C1
- IC50 [2]: 8.6 µM

Structure (SMILES): Cc1cccc(Nc2n[nH]c3c2CN(C(=O)C2CC2)CC3)c1
- IC50 [1]: 4.1 µM
- IC50 [2]: > 20 µM

Structure (SMILES): CC(=O)N1CCc2c(c(Nc3ccc(-c4cnn(C)c4)cc3)nn2C2CCOC2)C1 (single isomer, unassigned; 57)
- IC50 [2]: 8.5 µM

Structure (SMILES): CC(=O)N1CCc2c(c(Nc3cccc(-c4cccnc4)c3)nn2CC2CC2)C1
- IC50 [2]: 4 µM
- Papp A→B at 3 h, 10 µM [3]: 24 ×10⁻⁶ cm/s

Structure (SMILES): CC(=O)N1CCc2c(c(Nc3cccc(C)c3)nn2CCC2CC2)C1
- IC50 [1]: 0.18 µM
- IC50 [2]: 9.8 µM

Structure (SMILES): CC(=O)N1CCc2c(c(Nc3ccc(-c4cnn(C)c4)cc3)nn2C2CCOC2)C1 (single isomer, unassigned; 58)
- IC50 [2]: 11 µM

Structure (SMILES): CC(=O)N1CCc2c(c(Nc3cccc(-c4ccn[nH]4)c3)nn2CC2CC2)C1
- IC50 [2]: 3.8 µM
- Papp A→B at 3 h, 10 µM [3]: 6.3 ×10⁻⁶ cm/s

Structure (SMILES): CC(=O)N1CCc2c(c(Nc3cccc(C)c3)nn2Cc2ccccn2)C1
- IC50 [2]: 7.3 µM

Structure (SMILES): CC(=O)N1CCc2c(c(Nc3cccc(C)c3)nn2CCO)C1
- IC50 [2]: > 20 µM

Structure (SMILES): CCNC(=O)c1cccc(Nc2nn(CC3CC3)c3c2CN(C(C)=O)CC3)c1
- IC50 [1]: 0.04 µM
- IC50 [2]: 7.7 µM
- IC50 [10]: 1.5 µM

Structure (SMILES): COCCn1nc(Nc2cccc(C)c2)c2c1CCN(C(C)=O)C2
- IC50 [2]: > 20 µM

Structure (SMILES): CC(=O)N1CCc2[nH]nc(Nc3cccc(F)c3)c2C1
- IC50 [1]: 0.43 µM
- IC50 [2]: > 20 µM

Structure (SMILES): CC(=O)N1CCc2[nH]nc(Nc3cccc(C(F)(F)F)c3)c2C1
- IC50 [1]: 0.1 µM
- IC50 [2]: 18 µM

Structure (SMILES): CC(=O)N1CCc2c(c(Nc3cccc(C)c3)nn2Cc2ccncc2)C1
- IC50 [2]: 5.9 µM

Structure (SMILES): CC(=O)N1CCc2[nH]nc(Nc3ccccc3F)c2C1
- IC50 [1]: 1.4 µM
- IC50 [2]: > 20 µM

Structure (SMILES): CC(=O)N1CCc2c(c(Nc3cccc(C)c3)nn2Cc2cccnc2)C1
- IC50 [2]: 5.6 µM

Structure (SMILES): CC(=O)N1CCc2c(c(Nc3cccc(C(=O)NC(C)C)c3)nn2CC2CC2)C1
- IC50 [1]: 0.03 µM
- IC50 [10]: 0.96 µM
- clearance [8]: 43 mL/min/kg
- bioavailability [11]: 5%
- Papp A→B at 3 h, 10 µM [3]: 2.4 ×10⁻⁶ cm/s

Structure (SMILES): CC(=O)N1CCc2c(c(Nc3cccc(-c4cnn(C)c4)c3)nn2CC2CC2)C1
- IC50 [2]: 4.2 µM
- Papp A→B at 3 h, 10 µM [3]: 18 ×10⁻⁶ cm/s
- Drug metabolism [12]: Metabolite_Detected
- Drug metabolism [13]: Metabolite_Detected
- Drug metabolism [14]: Metabolite_Detected
- Drug metabolism [15]: Metabolite_Detected

Structure (SMILES): Cc1cccc(Nc2n[nH]c3c2CN(C(=O)C(F)(F)F)CC3)c1
- IC50 [1]: 4.3 µM
- IC50 [2]: > 20 µM

Structure (SMILES): CCc1ccc(Nc2n[nH]c3c2CN(C(C)=O)CC3)cc1
- IC50 [1]: 0.25 µM
- IC50 [2]: > 20 µM

Structure (SMILES): CC(=O)N1CCc2[nH]nc(Nc3ccccc3C)c2C1
- IC50 [1]: 1.2 µM
- IC50 [2]: > 20 µM

Structure (SMILES): CCc1cccc(Nc2n[nH]c3c2CN(C(C)=O)CC3)c1
- IC50 [1]: 0.19 µM
- IC50 [2]: > 20 µM

Structure (SMILES): CC(=O)N1CCc2c(c(Nc3cccc(C)c3)nn2C)C1
- IC50 [2]: > 20 µM

Structure (SMILES): CC(=O)N1CCc2c(c(Nc3cccc(-c4ccnn4C)c3)nn2CC2CC2)C1
- IC50 [2]: 3.7 µM
- Papp A→B at 3 h, 10 µM [3]: 15 ×10⁻⁶ cm/s
